# Where “and” joins values, the source holds several entries; their conditions need not be identical. Equal entries are not always repeated. Entries after “also recorded” stand apart in the source; their conditions may differ.
# B1: Activin A: effector tested in the HD-DoE experiments (protein, UniProt P08476 311-426, looked up)
# Inhibin beta A chain: GLECDGKVNICCKKQFFVSFKDIGWNDWIIAPSGYHANYCEGECPSHIAGTSGSSLSFHSTVINHYRMRGHSPFANLKSCCVPTKLRPMSMLYYDDGQNIIKKDIQNMIVEECGCS
# modifications: Inhibin beta A chain
# B2: GDNF: glial cell line-derived neurotrophic factor, GDNF agonist (protein, UniProt P39905 78-211, looked up)
# Glial cell line-derived …: SPDKQMAVLPRRERNRQAAAANPENSRGKGRRGQRGKNRGCVLTAIHLNVTDLGLGYETKEELIFRYCSGSCDAAETTYDKILKNLSRNRRLVSDKVGQACCRPIAFDDDLSFLDDNLVYHILRKHSAKRCGCI
# B3: BDNF: brain-derived neurotrophic factor, BDNF agonist (protein, UniProt P23560 19-247, looked up)
# Neurotrophic factor BDNF …: APMKEANIRGQGGLAYPGVRTHGTLESVNGPKAGSRGLTSLADTFEHVIEELLDEDQKVRPNEENNKDADLYTSRVMLSSQVPLEPPLLFLLEEYKNYLDAANMSMRVRRHSDPARRGELSVCDSISEWVTAADKKTAVDMSGGTVTVLEKVPVSKGQLKQYFYETKCNPMGYTKEGCRGIDKRHWNSQCRTTQSYVRALTMDSKKRIGWRFIRIDTSCVCTLTIKRGR
# Tests used:
# [1] = test system: stage 2 neural progenitors; assay: HD-DoE 12-factor model for stage 3 recipe (FIG. 19-23, 29); format: cell-based, human
# Text: To develop the neuronal differentiation recipes, the impact of various agonist and antagonists (effectors) on maturation of MB neural progenitors was investigated using the HD-DoE method described in Example 1. These effectors were chosen based on available literature on developmental biology, differentiation of stem cells as well as mouse and human single cell RNA-seq data from midbrain neurons at the time.
# To engineer the recipe of stage 3 of differentiation, cells were first cultured in the stage 1 and stage 2 media as described herein, then they were treated with combinations of 8 or 12 factors for 3 days and the gene expression of cells in each condition was modeled. To guide the cells towards a subtype of midbrain dopaminergic neurons that reside in Substantia Nigra pars compacta (SNc) region of the brain, neural progenitors need to be SOX6^+ (Pereira et al. (2021) Cell Rep. 37:109975 Oosterveen et al. (2021) Stem Cell Reports 16:2718-2735 Poulin et al. (2020) Trends Neurosci. 43:155-169). CORIN, NGN2 and MSX1 are other markers involved in neurogenesis of dopaminergic neurons originating from floorplate region of developing midbrain (Wang et al. (2020) Cells 9:1489; Samata et al. (2016) Nat Commun. 7:13097; Ono et al. (2007) Development 134:3213-3225; Prakash et al. (2006) J. Physiol. 575:403410).
# Therefore, we focused on maximizing expression of SOX6, CORIN, NGN2 and MSX1 in modeling experiments. One of the 12-factor models, the results of which are shown in FIG. 19, including LDN193189, AGN193109, BMP7, TTNPB, PD0325901, A8301, MHY1485, CHIR99021, XAV939, SANT-1, Purmorphamine and MK2206, provided a combination set that could maximize expression level of CORIN to more than 2000.
# (§1) To assess the impact of elimination of each validated factor identified in Example 5 for the stage 3 and stage 4 recipes, we used dynamic profile analysis and compared the expression level of genes of interest in absence of each finalized factor while others are present.
# In the stage 3 recipe, each of the finalized factors were removed in their respective models while other factors were present and the expression level of genes of interest was assessed compared to presence of all factors. When AGN193109 was excluded, level of all CORIN, KCNJ6, MSX1 and SOX6 decreased from 900 to 450, 50 to 35, 140 to 110 and 105 to 60, respectively. […] When PD0325901 was removed, expression levels of CORIN and KCNJ6 increased to 1200 and 70 while levels of MSX1 and SOX6 decreased to 105 and 20. In the absence of CHIR99021, the expression level of CORIN was again increased to 1200 while the level of KCNJ6 and MSX1 dropped to 50 and 115. […] Therefore, it was decided to include this compound in the final recipe. […] Therefore, CHIR99021 was also included in the final recipe.
# [2] = test system: stage 2 neural progenitors; assay: HD-DoE another 12-factor model for stage 3 recipe (FIG. 24, 25, 30); format: cell-based, human; details: for impact on expression of SOX6 / impact on expression of MSX1: dynamic profile, 12 effectors
# Description: In another 12-factor model, additional factors including Activin A, Takinib (TAK inhibitor), FGF8b, AZD3147 (mTOR antagonist), MHY1485 (mTOR agonist), and Yhhu-3792 (Notch agonist) were tested. Some of the factors from previous model (BMP7, A 8301, LDN193189, PD0325901, MK2206 and DBZ) were also included.
# as §1
# In another model, to determine the combinatorial effect of AZD3147 and DBZ on gene profile of cells in presence of other factors of final recipe, the expression levels of SOX6 and MSX1 were compared in the absence of each of the factors in the presence of PD0325901 and BMP7. These two compounds were the only final compounds that were included in inputs of this experimental model The results are shown in FIG. 30A and FIG. 30B. […] When DBZ was removed, the level of SOX6 and MSX1 both decreased to 140 and 35, respectively.
# [3] = test system: human pluripotent stem cells; assay: HD-DoE 13-factor experiment for stage 1 recipe, gene expression modeled after 3-day treatment; dynamic profile and factor criticality analysis; format: cell-based
# Text: This example utilizes a method of High-Dimensional Design of Experiments (HD-DoE), as previously described in Bukys et al. (2020) Iscience 23:101346. The method employs computerized design geometries to simultaneously test multiple process inputs and offers mathematical modeling of a deep effector/response space. The method allows for finding combinatorial signaling inputs that control a complex process, such as during cell differentiation. It allows testing of multiple plausible critical process parameters, as such parameters impact output responses, such as gene expression. Because gene expression provides hallmark features of the phenotype of, for example, a human cell, the method can be applied to identify, and understand, which signaling pathways control cell fate. In the current example, the HD-DOE method was applied with the intent to find conditions for induction of midbrain neural progenitor-expressed genes, directly from the pluripotent stem cell state.
# To develop the recipe for each stage, the impact of agonists and antagonists of multiple signaling pathways (referred to herein as “effectors”) on the expression of two sets of 53 pre-selected genes after a 3-day treatment was tested and modeled. These effectors are small molecules or proteins that are commonly used during stepwise differentiation of stem cells to specific fates. The choice of the effectors to test was based on current literature on neural induction in the midbrain region of the developing brain and differentiation of stem cells to neural progenitors.
# To test the effectors, experiments with at least 8 factors were designed that can assess the response of cells to 48 or more different combinations of effectors in a range of concentrations. To analyze the models, we focused on expression of genes expressed in the midbrain region, including OTX2, DMBX1, FOXA2, LMX1A, and on the absence of GBX2, which is a hindbrain marker. The impact of each effector on gene expression level is defined by a parameter called factor contribution that is calculated for each effector during the modeling.
# To identify the recipe of stage 1 of differentiation, cells were treated with various effectors for 3 days and the gene expression of cells was modeled. […] This model consisted of 13 factors including LDN193189, PD173074, BLU9931, Purmorphamine, SC79, MK2206, ZM336372, PD0325901, CHIR99021, XAV939, UCLA-gp130, Tofacitinib and GO 6983.
# (§2) To assess the impact of elimination of each validated factor, we used dynamic profile analysis and compared the expression level of genes of interest in absence of each finalized factor while others are present.
# In the stage 1 recipe, each of the five finalized factors were removed while the other four factors were present and the expression levels of OTX2, DMBX1, FOXA2 and LMX1A was assessed compared to the levels in the presence of all five factors (FIG. 11A-B). […] Expression level of DMBX1 increased in absence of LDN193189, however values of OTX2, FOXA2 and LMX1A decreased.
# [4] = test system: stage 1 neural stem cells; assay: HD-DoE 12-factor experiment for stage 2 recipe (second model, FIG. 8-10, 13); format: cell-based, human; details: dynamic profile, 12 effectors
# Description: To test additional factors like FGF8 that is routinely used in midbrain differentiation protocols, we ran another 12-factor experiment consisting of LDN193189, BMP7, A 83-01, Activin A, Takinib, PD0325901, MK2206, FGF8b, AZD3147, MHY1485, GSI-XX and Yhhu 3792. Similar to the previous experiment, hiPSCs were treated with stage 1 media for 3 days and then treated with 96 conditions of combinations of the factors for an additional 3 days. When this model was optimized for maximum expression of FOXA2, BMP7 with factor contribution of 13.7 and MK2206 with 14.2 had the most impact on its expression followed by AZD 3147 with factor contribution of 10.9.
# as §2
# In the stage 2 recipe, each of the six finalized factors were removed while the other five factors were present and the expression levels of FOXA2, LMX1A and GBX2 were assessed, compared to the levels in the presence of all factors. According to the first experiment model, the absence of TTNPB lead to a rise of GBX2 expression, while the value of FOXA2 and LMX1A reduced drastically from 10,000 to 0 and 30,000 to 15,000, respectively. The absence of A 83-01 reduced the expression of FOXA2 from 10,000 to 7000, however, as expected, the value of LMX1A increased from 30,000 to 40,000. […] According to the second experiment model, the absence of BMP7 and MK2206 both reduced the level of FOXA2 while increasing the value of LMX1A, with BMP7 as the main effector that led to 0 expression of FOXA2.
# [5] = test system: stage 3 immature neurons; assay: HD-DoE 8-factor experiment for stage 4 recipe (FIG. 27, 28, 31); format: cell-based, human; details: for impact on expression of NR4A2: 8-factor model / dynamic profile; for expression level of PITX3 in absence of the factor / expression level of NR4A2 in absence of the factor: stage 4 recipe, other factors present; for expression level of PITX3 in absence of the factor: 40 with all factors; for expression level of NR4A2 in absence of the factor: 400 with all factors
# Description: To further differentiate the cells to a mature neuronal identity, additional HD-DoE experiments were performed on the cells that were cultured in stage 1, stage 2 and stage 3 differentiation media. After 4 days, gene expression of cells in different combinatorial conditions were investigated. At this time, we focused on maximal expression of more mature dopaminergic genes such as NR4A2, PITX3 and TH (Tiklová et al. (2020) Nat Commun. 11:2434; Fiorenzano et al. (2021) Nat Commun., 12:7302). In one model, cells were treated with a combinatorial matrix with eight inputs including CHIR99021, BDNF, GDNF, Rosiglitazone, GW7647, DBZ and heparin.
# as §1
# In the stage 4 recipe, each of six finalized factors were excluded while other factors were present and the expression levels of NR4A2 and PITX3 were assessed compared to the presence of all factors.
molecule,measurement,setting,value
O=C(NOC[C@H](O)CO)c1ccc(F)c(F)c1Nc1ccc(I)cc1F [PD0325901],factor contribution,"[1]; model optimized for maximum expression of KCNJ6, positive regulators",10.9
same,factor contribution,"[1]; model optimized for maximum expression of SOX6, positive impact",13.5
same,expression level of KCNJ6 in absence of the factor,"[1]; stage 3 recipe, other factors present, 50 with all factors",70
same,expression level of SOX6 in absence of the factor,"[1]; stage 3 recipe, other factors present, 105 with all factors",20
same,expression level of MSX1 in absence of the factor,"[1]; stage 3 recipe, other factors present, 140 with all factors",105
same,expression level of CORIN in absence of the factor,"[1]; stage 3 recipe, other factors present, 900 with all factors",1200
same,level of MSX1 in absence of the factor,"[2]; AZD3147, DBZ, PD0325901 and BMP7 set, 45 with all factors",40
same,level of SOX6 in absence of the factor,"[2]; AZD3147, DBZ, PD0325901 and BMP7 set, 185 with all factors",165
same,impact on expression of SOX6,[2],positive impact
same,impact on expression of OTX2,"[3]; dynamic profile, 13 effectors",positive impact
same,factor contribution,"[3]; model optimized for maximum expression of OTX2, positive impact, 3-day treatment",18.1
same,expression level of LMX1A in absence of the factor,"[3]; stage 1 recipe, other four factors present, 300 with all five factors",500
same,expression level of FOXA2 in absence of the factor,"[3]; stage 1 recipe, other four factors present, 600 with all five factors",700
same,expression level of DMBX1 in absence of the factor,"[3]; stage 1 recipe, other four factors present, 3000 with all five factors",900
CCCn1/c(=N/C(=O)c2cccc(C(N)=O)c2)[nH]c2ccccc21 [Takinib],impact on expression of MSX1,[2],negatively regulate; also recorded: negative impact
same,impact on expression of SOX6,[2],positive effect
same,impact on expression of FOXA2,[4],did not make a meaningful positive change
same,impact on expression of LMX1A,[4],did not make a meaningful positive change
B1,impact on expression of MSX1,[2],negatively regulate; also recorded: negative impact
same,impact on expression of SOX6,[2],positive effect
same,impact on expression of FOXA2,[4],did not make a meaningful positive change
same,impact on expression of LMX1A,[4],did not make a meaningful positive change
B2,impact on expression of NR4A2,[5],positive regulatory impact
same,expression level of PITX3 in absence of the factor,[5],25
same,expression level of NR4A2 in absence of the factor,[5],300
B3,impact on expression of NR4A2,[5],positive impact
same,impact on expression level of PITX3,"[5]; dynamic profile, 8 effectors",positive impact
same,factor contribution,"[5]; model maximized for NR4A2, positive regulatory impact, after 4 days",17 and 17.1
same,expression level of PITX3 in absence of the factor,[5],10
same,expression level of NR4A2 in absence of the factor,[5],100
